Assay results from the NIST ThermoML archive (doi:10.1016/j.jct.2006.05.004).

Key:
[1] = xn = mol fraction of the nth substance listed; conditions: 298.15 K, 101 kPa, Liquid
[2] = excess molar enthalpy (molar enthalpy of mixing); xn = mol fraction of the nth substance listed; conditions: 298.15 K, 101 kPa, Liquid

BrCCCBr [1,3-dibromopropane] + CCCC(=O)OC
Conditions	excess molar enthalpy [kcal/mol]	mass density [kg/m3]
[1], x2 = 0.0527	–	1904.53
[1], x2 = 0.1033	–	1844.63
[1], x2 = 0.1625	–	1775.48
[1], x2 = 0.2135	–	1716.63
[1], x2 = 0.268	–	1654.61
[1], x2 = 0.3273	–	1588.07
[1], x2 = 0.3844	–	1524.77
[1], x2 = 0.4397	–	1464.34
[1], x2 = 0.4966	–	1402.92
[1], x2 = 0.5597	–	1335.77
[1], x2 = 0.6194	–	1273.09
[1], x2 = 0.6773	–	1213.28
[1], x2 = 0.7401	–	1149.07
[1], x2 = 0.8089	–	1079.72
[1], x2 = 0.8623	–	1026.6
[1], x2 = 0.9397	–	950.76
[2], x2 = 0.0571	0.00789	–
[2], x2 = 0.1319	0.0136	–
[2], x2 = 0.2164	0.0167	–
[2], x2 = 0.3018	0.0163	–
[2], x2 = 0.3823	0.0126	–
[2], x2 = 0.4559	0.00676	–
[2], x2 = 0.5207	-0.000191	–
[2], x2 = 0.5371	-0.00325	–
[2], x2 = 0.5718	-0.00545	–
[2], x2 = 0.6497	-0.00978	–
[2], x2 = 0.7433	-0.0109	–
[2], x2 = 0.8389	-0.00956	–
[2], x2 = 0.9316	-0.00511	–

BrCCBr [1,2-dibromoethane] + COC(C)=O
Conditions	excess molar enthalpy [kcal/mol]	mass density [kg/m3]
[1], x2 = 0.0644	–	2093.03
[1], x2 = 0.1265	–	2019.85
[1], x2 = 0.186	–	1949.51
[1], x2 = 0.2463	–	1877.44
[1], x2 = 0.3093	–	1801.67
[1], x2 = 0.3675	–	1731.26
[1], x2 = 0.4309	–	1653.78
[1], x2 = 0.4879	–	1583.49
[1], x2 = 0.5507	–	1505.69
[1], x2 = 0.6003	–	1443.71
[1], x2 = 0.7248	–	1286.24
[1], x2 = 0.7776	–	1218.54
[1], x2 = 0.8338	–	1146.14
[1], x2 = 0.8868	–	1076.96
[1], x2 = 0.9443	–	1001.13
[2], x2 = 0.0678	0.0234	–
[2], x2 = 0.1329	0.0398	–
[2], x2 = 0.2086	0.0538	–
[2], x2 = 0.2791	0.062	–
[2], x2 = 0.3449	0.0668	–
[2], x2 = 0.4079	0.0679	–
[2], x2 = 0.4651	0.0656	–
[2], x2 = 0.5145	0.0616	–
[2], x2 = 0.5219	0.0606	–
[2], x2 = 0.559	0.0568	–
[2], x2 = 0.5731	0.055	–
[2], x2 = 0.6281	0.0477	–
[2], x2 = 0.6875	0.0384	–
[2], x2 = 0.7492	0.0287	–
[2], x2 = 0.8149	0.0208	–
[2], x2 = 0.8808	0.0122	–
[2], x2 = 0.9429	0.00631	–

BrCCCBr [1,3-dibromopropane] + COC(C)=O
Conditions	excess molar enthalpy [kcal/mol]	mass density [kg/m3]
[1], x2 = 0.0821	–	1900.75
[1], x2 = 0.1456	–	1845.13
[1], x2 = 0.2131	–	1784.87
[1], x2 = 0.2862	–	1717.43
[1], x2 = 0.3503	–	1656.68
[1], x2 = 0.412	–	1596.53
[1], x2 = 0.4744	–	1533.88
[1], x2 = 0.535	–	1471.53
[1], x2 = 0.5898	–	1413.65
[1], x2 = 0.6476	–	1350.9
[1], x2 = 0.7027	–	1289.26
[1], x2 = 0.7565	–	1227.76
[1], x2 = 0.8086	–	1166.64
[1], x2 = 0.8558	–	1109.89
[1], x2 = 0.905	–	1048.62
[1], x2 = 0.9514	–	989.83
[2], x2 = 0.08	0.034	–
[2], x2 = 0.1613	0.0558	–
[2], x2 = 0.2406	0.0748	–
[2], x2 = 0.3177	0.0867	–
[2], x2 = 0.3862	0.091	–
[2], x2 = 0.4435	0.0934	–
[2], x2 = 0.4958	0.0935	–
[2], x2 = 0.5468	0.0894	–
[2], x2 = 0.5909	0.0838	–
[2], x2 = 0.6336	0.078	–
[2], x2 = 0.6509	0.0747	–
[2], x2 = 0.6702	0.0722	–
[2], x2 = 0.7094	0.0627	–
[2], x2 = 0.7687	0.0505	–
[2], x2 = 0.8316	0.0365	–
[2], x2 = 0.8928	0.0229	–
[2], x2 = 0.9501	0.0112	–

BrCCCCCBr [1,5-dibromopentane] + CCC(=O)OC
Conditions	excess molar enthalpy [kcal/mol]	mass density [kg/m3]
[1], x2 = 0.0841	–	1644.47
[1], x2 = 0.1537	–	1602.6
[1], x2 = 0.1671	–	1594.29
[1], x2 = 0.2971	–	1510.79
[1], x2 = 0.3661	–	1463.62
[1], x2 = 0.4312	–	1417.3
[1], x2 = 0.4903	–	1373.47
[1], x2 = 0.609	–	1280.2
[1], x2 = 0.6628	–	1235.27
[1], x2 = 0.716	–	1189.3
[1], x2 = 0.8143	–	1099.41
[1], x2 = 0.864	–	1051.37
[1], x2 = 0.9561	–	957.37
[2], x2 = 0.0808	0.0283	–
[2], x2 = 0.1674	0.0457	–
[2], x2 = 0.2542	0.0591	–
[2], x2 = 0.3326	0.0658	–
[2], x2 = 0.4065	0.068	–
[2], x2 = 0.4708	0.0667	–
[2], x2 = 0.4974	0.0651	–
[2], x2 = 0.5293	0.0628	–
[2], x2 = 0.5381	0.0621	–
[2], x2 = 0.5791	0.0574	–
[2], x2 = 0.584	0.0562	–
[2], x2 = 0.6329	0.0509	–
[2], x2 = 0.6845	0.0433	–
[2], x2 = 0.7383	0.0366	–
[2], x2 = 0.7938	0.0284	–
[2], x2 = 0.8494	0.0202	–
[2], x2 = 0.9053	0.0112	–
[2], x2 = 0.955	0.00521	–

BrCCCCCCBr [1,6-dibromohexane] + CCCCC(=O)OC
Conditions	excess molar enthalpy [kcal/mol]	mass density [kg/m3]
[1], x2 = 0.0703	–	1557.19
[1], x2 = 0.1394	–	1513.24
[1], x2 = 0.2633	–	1432.4
[1], x2 = 0.3222	–	1392.97
[1], x2 = 0.3842	–	1350.7
[1], x2 = 0.4472	–	1306.98
[1], x2 = 0.5076	–	1264.24
[1], x2 = 0.5698	–	1219.49
[1], x2 = 0.6817	–	1136.77
[1], x2 = 0.7372	–	1094.69
[1], x2 = 0.8445	–	1011.22
[1], x2 = 0.8993	–	967.47
[1], x2 = 0.945	–	930.4
[2], x2 = 0.0734	0.0108	–
[2], x2 = 0.1653	0.0181	–
[2], x2 = 0.264	0.0216	–
[2], x2 = 0.3507	0.0227	–
[2], x2 = 0.418	0.0213	–
[2], x2 = 0.4743	0.0187	–
[2], x2 = 0.5227	0.0154	–
[2], x2 = 0.5866	0.0104	–
[2], x2 = 0.6386	0.00703	–
[2], x2 = 0.716	0.00251	–
[2], x2 = 0.7966	4.78e-05	–
[2], x2 = 0.879	-0.000789	–
[2], x2 = 0.9483	-0.00012	–

BrCCCCCBr [1,5-dibromopentane] + COC(C)=O
Conditions	excess molar enthalpy [kcal/mol]	mass density [kg/m3]
[1], x2 = 0.0956	–	1647.08
[1], x2 = 0.1844	–	1601.35
[1], x2 = 0.2647	–	1557.01
[1], x2 = 0.3394	–	1512.51
[1], x2 = 0.4752	–	1423.41
[1], x2 = 0.5958	–	1333.86
[1], x2 = 0.6582	–	1282.77
[1], x2 = 0.7059	–	1241.33
[1], x2 = 0.7548	–	1196.56
[1], x2 = 0.8019	–	1150.87
[1], x2 = 0.8486	–	1102.92
[1], x2 = 0.8874	–	1060.93
[1], x2 = 0.9243	–	1019.18
[1], x2 = 0.9638	–	972.17
[2], x2 = 0.1045	0.0536	–
[2], x2 = 0.2048	0.0886	–
[2], x2 = 0.2959	0.115	–
[2], x2 = 0.3795	0.13	–
[2], x2 = 0.454	0.137	–
[2], x2 = 0.5171	0.137	–
[2], x2 = 0.5731	0.133	–
[2], x2 = 0.622	0.127	–
[2], x2 = 0.685	0.116	–
[2], x2 = 0.7322	0.103	–
[2], x2 = 0.7812	0.0893	–
[2], x2 = 0.8296	0.0734	–
[2], x2 = 0.874	0.0585	–
[2], x2 = 0.9245	0.0386	–
[2], x2 = 0.9655	0.0173	–
